Experimental data as given in patent US6737383B1, “Herbicidal oxadiazolidines” (priority 1999, dated 2004).

Tests used:
bedstraw = assay: Test B pre/postemergence bedstraw; assay type: in vivo, Galium aparine; conditions: Preemergence
Summary of the method: (§1)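 Test chemicals in a non-phytotoxic solvent mixture with surfactant were sprayed preemergence onto planted seeds and postemergence onto plants 2 to 18 cm tall (1- to 4-leaf stage). After twelve to sixteen days in a greenhouse, injury was visually rated against untreated controls from 0 (no effect) to 10 (complete control).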

blackgrass = assay: Test B pre/postemergence blackgrass; assay type: in vivo, Alopecurus myosuroides; conditions: Preemergence
Summary of the method: as §1

surinam grass = assay: Test B pre/postemergence surinam grass; assay type: in vivo, Brachiaria decumbens; conditions: Preemergence
Summary of the method: as §1

cocklebur = assay: Test B pre/postemergence cocklebur; assay type: in vivo, Xanthium strumarium; conditions: Preemergence
Summary of the method: as §1

corn = assay: Test B pre/postemergence corn; assay type: in vivo, Zea mays; conditions: Preemergence
Summary of the method: as §1

crabgrass = assay: Test B pre/postemergence crabgrass; assay type: in vivo, Digitaria sanguinalis; conditions: Preemergence
Summary of the method: as §1

giant foxtail = assay: Test B pre/postemergence giant foxtail; assay type: in vivo, Setaria faberii; conditions: Preemergence, scale of 0 to 10 where 0 is no effect and 10 is complete control
Summary of the method: as §1

morningglory = assay: Test B pre/postemergence morningglory; assay type: in vivo, Ipomoea hederacea; conditions: Preemergence, scale of 0 to 10 where 0 is no effect and 10 is complete control
Summary of the method: as §1

pigweed = assay: Test B pre/postemergence pigweed; assay type: in vivo, Amaranthus retroflexus; conditions: Preemergence, scale of 0 to 10 where 0 is no effect and 10 is complete control
Summary of the method: as §1

rape = assay: Test B pre/postemergence rape; assay type: in vivo, Brassica napus; conditions: Preemergence, scale of 0 to 10 where 0 is no effect and 10 is complete control
Summary of the method: as §1

soybean = assay: Test B pre/postemergence soybean; assay type: in vivo, Glycine max; conditions: Preemergence, scale of 0 to 10 where 0 is no effect and 10 is complete control
Summary of the method: as §1

sugar beet = assay: Test B pre/postemergence sugar beet; assay type: in vivo, Beta vulgaris; conditions: Preemergence, scale of 0 to 10 where 0 is no effect and 10 is complete control
Summary of the method: as §1

velvetleaf = assay: Test B pre/postemergence velvetleaf; assay type: in vivo, Abutilon theophrasti; conditions: Preemergence, scale of 0 to 10 where 0 is no effect and 10 is complete control
Summary of the method: as §1

wheat = assay: Test B pre/postemergence wheat; assay type: in vivo, Triticum aestivum; conditions: Preemergence, scale of 0 to 10 where 0 is no effect and 10 is complete control
Summary of the method: as §1

wild oat = assay: Test B pre/postemergence wild oat; assay type: in vivo, Avena fatua; conditions: Preemergence, scale of 0 to 10 where 0 is no effect and 10 is complete control
Summary of the method: as §1

purple nutsedge = assay: Test B pre/postemergence purple nutsedge; assay type: in vivo, Cyperus rotundus; conditions: Preemergence, scale of 0 to 10 where 0 is no effect and 10 is complete control
Summary of the method: as §1

[1] = Rate 62 g/ha, scale of 0 to 10 where 0 is no effect and 10 is complete control
[2] = Rate 125 g/ha, scale of 0 to 10 where 0 is no effect and 10 is complete control
[3] = Rate 250 g/ha, scale 0 to 10 (0 no effect, 10 complete control)
[4] = Rate 500 g/ha, scale of 0 to 10 where 0 is no effect and 10 is complete control

## CCn1ncc(Cn2c(=O)on(C(=O)N(c3ccc(F)cc3F)C(C)C)c2=O)c1Cl [Compound 682]
bedstraw; [1]
  Bedstraw plant response rating: 0
bedstraw; [2]
  Plant response rating, Bedstraw: 0
bedstraw; [3]
  Plant response rating, Bedstraw: 0
bedstraw; [4]
  Plant response rating, Bedstraw: 0
blackgrass; [1]
  Blackgrass plant response rating: 3
blackgrass; [2]
  Plant response rating, Blackgrass: 5
blackgrass; [3]
  Plant response rating, Blackgrass: 8
blackgrass; [4]
  Plant response rating, Blackgrass: 9
Surinam grass; [1]
  B. signalgrass plant response rating: 2
Surinam grass; [2]
  Plant response rating, B. signalgrass: 6
Surinam grass; [3]
  Plant response rating, B. signalgrass: 7
Surinam grass; [4]
  Plant response rating, B. signalgrass: 8
cocklebur; [1]
  Cocklebur plant response rating: 0
cocklebur; [2]
  Plant response rating, Cocklebur: 0
cocklebur; [3]
  Plant response rating, Cocklebur: 0
cocklebur; [4]
  Plant response rating, Cocklebur: 0
corn; [1]
  Corn plant response rating: 0
corn; [2]
  Plant response rating, Corn: 0
corn; [3]
  Plant response rating, Corn: 0
corn; [4]
  Plant response rating, Corn: 0
crabgrass; [1]
  Crabgrass plant response rating: 5
crabgrass; [2]
  Plant response rating, Crabgrass: 9
crabgrass; [3]
  Plant response rating, Crabgrass: 9
crabgrass; [4]
  Plant response rating, Crabgrass: 9
Giant foxtail; Rate 62 g/ha
  Giant foxtail plant response rating: 9
Giant foxtail; Rate 125 g/ha
  Plant response rating, Giant foxtail: 10
Giant foxtail; Rate 500 g/ha
  Plant response rating, Giant foxtail: 10
morningglory; Rate 62 g/ha
  Morningglory plant response rating: 0
morningglory; Rate 125 g/ha
  Plant response rating, Morningglory: 0
morningglory; Rate 500 g/ha
  Plant response rating, Morningglory: 3
pigweed; Rate 62 g/ha
  Redroot pigweed plant response rating: 4
pigweed; Rate 125 g/ha
  Plant response rating, Redroot pigweed: 4
pigweed; Rate 500 g/ha
  Plant response rating, Redroot pigweed: 7
rape; Rate 62 g/ha
  Rape plant response rating: 0
rape; Rate 125 g/ha
  Plant response rating, Rape: 0
rape; Rate 500 g/ha
  Plant response rating, Rape: 7
soybean; Rate 62 g/ha
  Soybean plant response rating: 0
soybean; Rate 125 g/ha
  Plant response rating, Soybean: 0
soybean; Rate 500 g/ha
  Plant response rating, Soybean: 0
Sugar beet; Rate 62 g/ha
  Sugarbeets plant response rating: 0
Sugar beet; Rate 125 g/ha
  Plant response rating, Sugarbeets: 0
Sugar beet; Rate 500 g/ha
  Plant response rating, Sugarbeets: 7
velvetleaf; Rate 62 g/ha
  Velvetleaf plant response rating: 0
velvetleaf; Rate 125 g/ha
  Plant response rating, Velvetleaf: 0
velvetleaf; Rate 500 g/ha
  Plant response rating, Velvetleaf: 0
wheat; Rate 62 g/ha
  Wheat plant response rating: 0
wheat; Rate 125 g/ha
  Plant response rating, Wheat: 0
wheat; Rate 500 g/ha
  Plant response rating, Wheat: 0
Wild oat; Rate 62 g/ha
  Wild oats plant response rating: 0
Wild oat; Rate 125 g/ha
  Plant response rating, Wild oats: 0
Wild oat; Rate 500 g/ha
  Plant response rating, Wild oats: 8
Purple nutsedge; Rate 62 g/ha
  Nutsedge plant response rating: 0
Purple nutsedge; Rate 125 g/ha
  Plant response rating, Nutsedge: 0
Purple nutsedge; Rate 500 g/ha
  Plant response rating, Nutsedge: 0
